Measurements published in patent US10328075B2, “Method of treatment and compounds for use therein” (Baker Heart and Diabetes Institute, priority 2015, dated 2019).
Like-named read-outs stand apart in the source and are kept apart here.

How the values were obtained:
[1] = biological target: T1, hFPR2 (Homo sapiens, UniProt P25090); test: Akt (Thr308) phosphorylation in hFPR2-FlpIn-CHO cells; format: cell-based; conditions: for ΔLog(τ/KA), Akt 1/2/3 (Thr308) phosphorylation, hFPR2-Flpln-CHO: normalized transduction coefficient, reference agonist Cmpd43; for Log(τ/KA), Akt 1/2/3 (Thr308) phosphorylation, hFPR2-Flpln-CHO: transduction coefficient
T1 construct: expressed in transfected cells
T1 sequence (P25090 1-351): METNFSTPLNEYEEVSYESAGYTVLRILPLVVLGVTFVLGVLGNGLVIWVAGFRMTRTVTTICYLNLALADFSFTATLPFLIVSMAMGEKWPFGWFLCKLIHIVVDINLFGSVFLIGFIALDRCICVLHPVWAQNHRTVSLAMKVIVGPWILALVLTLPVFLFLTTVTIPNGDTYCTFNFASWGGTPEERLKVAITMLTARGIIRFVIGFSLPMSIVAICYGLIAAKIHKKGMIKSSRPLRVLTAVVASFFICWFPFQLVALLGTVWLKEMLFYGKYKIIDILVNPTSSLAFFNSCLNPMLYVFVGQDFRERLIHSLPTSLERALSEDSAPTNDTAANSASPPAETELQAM
From the text: (§1) cDNDA construct and generation of stable cell lines: cDNA in pcDNA3.1^+ encoding the human formyl peptide receptors (FPR) subtypes, hFPR1, hFPR2 and hFPR3 was obtained from Invitrogen. The sequences for 3 hFPR receptors were amplified by PCR and cloned into the Gateway entry vector, pDONR202™, using the BP clonase enzyme mix, according to the manufactures' instructions (Invitrogen Inc, Carlsbad, Calif., USA). All hFPR receptors constructs in pDONR201™ were subsequently transfected into the pEF5/FRT/V5/dest vector using the LR clonase enzyme mix (Invitrogen). Receptor constructs (pEF5/FRT/V5/dest) were used to transfect FIp-In CHO cells as described previously (Valant C et al., PNAS, 2014). Cells were selected using 500 μg/mL hydromycin to generate cell lines stably expressing each receptor construct. Cells were maintained and cultured in high glucose DMEM supplemented with 10% FBS, 16 mM HEPES and 500 μg/mL hydromycin at 37° C. under a humidified atmosphere containing 5% CO2.
(§2) In the various assays described below, cells were plated into 96-well transparent cell culture plates at 4×10^4 cells per well, cultured overnight in serum-free media at 37° C. in 5% CO2.
Measurement of Akt1/2/3 phosphorylation and Akt 1: The same lysate was used for measurement of Akt1/2/3 phosphorylation (Ser473) and Akt1 (Thr308). Cells were lysed in SureFire lysis buffer and transferred to 384-well opaque proxiplates. Under low-light conditions, a 1:10:40 (v:v:v) dilution of AlphaScreen acceptor beads:Surefire activation buffer:Surefire reaction buffer was prepared and the plate was incubated in the dark at RT for 2 h. Then, a 1:20 (v:v) dilution of AlphaScreen donor beads/dilution was prepared and incubated in the dark at RT for another 2 h, before the fluorescence signal was measured by used of a Fusion-α plate reader (PerkinElmer Life and Analytical Sciences) with standard AlphaScreen settings. Receptor mediated phosphorylation of Akt1/2/3 (Ser473) and Akt1 (Thr308) were determined using the AlphaScreen™ […] SureFire™ kit, as per as per manufacturer's instructions. Data were normalized to the maximal response elicited by 10% (v:v) FBS at the same time point.
(§3) Data analysis: All data were analysed using GraphPad Prism 6.0 (GraphPad Software, San Deigo, Calif., USA). Where appropriate, concentration-response curves were fitted to derive the maximal agonist effect (Emax), and the ligand potency estimate (pEC50), where Emax is the maximal possible response of the system (not the agonist), basal is the basal level of response in the absence of agonist, and pEC50 is the negative logarithm of the agonist concentration that gives a response halfway between Emax and basal.
(§4) In the present study, FIp-IN CHO cells and Gateway plasmid were obtained from Invitrogen Inc (Carlsbad, Calif., USA). The sequences for all 3 known human FPRs (hFPR1, hFPR2 and hFPR3) were amplified by PCR and cloned into the Gateway entry vector, pDONR202TM, using the BP clonase enzyme mix, according to the manufacturers' instructions. The hFPR pDONR201TM constructs were subsequently transfected into the pEF5/FRT/V5/dest vector using the LR clonase enzyme mix (Invitrogen). Receptor constructs (pEF5/FRT/V5/dest) were used to transfect FIp-IN CHO cells, as described previously (Valant et al. 2014). Cells were selected using 500 μg/mL hydromycin to generate cell lines stably expressing each human receptor construct. Cells were maintained and cultured in high glucose Dulbecco's modified eagle medium (DMEM) supplemented with 10% fetal bovine serum (FBS, from JRH Biosciences, Lenexa, Kans., USA) and 500 μg/mL hydromycin B (Invitrogen Inc) at 37° C. under a humidified atmosphere containing 5% CO2. Cell were plated into 96-well transparent cell culture plates at 4×10^4 cells per well, cultured overnight in serum-free media at 37° C. in 5% CO2.

[2] = biological target: T2, hFPR1 (Homo sapiens, UniProt P21462); test: [Ca2+]i mobilization in FlpIn-CHO cells stably expressing hFPR1; format: cell-based; set-up: Calcium Rmax: unit not given here; conditions: for Emax: Flp-In-CHO
T2 construct: expressed in transfected cells
T2 sequence (P21462 1-350): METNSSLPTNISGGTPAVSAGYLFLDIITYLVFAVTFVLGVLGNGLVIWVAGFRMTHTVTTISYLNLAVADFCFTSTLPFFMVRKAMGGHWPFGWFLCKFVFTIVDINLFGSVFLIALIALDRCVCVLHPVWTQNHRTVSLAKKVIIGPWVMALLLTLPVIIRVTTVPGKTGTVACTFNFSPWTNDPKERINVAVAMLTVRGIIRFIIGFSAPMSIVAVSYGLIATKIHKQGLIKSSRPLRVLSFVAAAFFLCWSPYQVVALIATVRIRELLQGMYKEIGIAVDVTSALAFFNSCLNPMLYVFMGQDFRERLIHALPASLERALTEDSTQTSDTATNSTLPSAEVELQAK
From the text: as §1, §2
Intracellular calcium mobilization: Intracellular calcium mobilization was assayed as described previously (Keov, P et al., 2014). Briefly, cells were washed once using HEPES buffered saline (HBS) solution [150 mM NaCl, 2.2 mM CaCl2, 2.6 mM KCl, 1.2 mM MgCl2, 10 mM HEPEs, 10 mM D-Glucose, 0.5% (w/v) bovine serum albumin (BSA) and 4 mM probenecid] at pH 7.4, then treated with Fluo-4-AM (1 μM, in HBS/BSA/probenecid) for 60 min at 37° C. in 5% CO2 in the dark. Cells were then further washed and placed in HBS/BSA/probenecid solution for ligation addition and assay using the FLEXstation 3 plate reader (Molecular Devices, Sunnyvale, Calif.). For all experiments, peak change in fluorescence signal was normalized to the cellular response to 100 μM ATP, which was used as an internal positive control.
as §3, §4
(ii) Intracellular Ca2+ mobilization: Intracellular Ca2+ mobilization was determined in stably-transfected recombinant hFPR CHO cells, as described previously (Valant et al. 2014).

[3] = Table 3, percentage of Akt1/2/3 phosphorylation elicited by 10% FBS, read-out: Emax (%), Akt 1 (Thr308) phosphorylation, hFPR2-Flpln-CHO
[4] = Table 8, percent of response elicited by 10% FBS, read-out: Emax, Akt 1/2/3 (Thr308) phosphorylation, hFPR2-Flpln-CHO
[5] = Table 9, read-out: potency (pEC50) Ca^2+i, hFPR1-FlpInCHO cells in vitro (converted)

Compound | Emax [1, 3] | EC50 ([1]; Table 3, read-out: pEC50, Akt 1 (Thr308) phosphorylation, hFPR2-Flpln-CHO (converted)) | ΔLog(τ/KA), Akt 1/2/3 (Thr308) phosphorylation, hFPR2-Flpln-CHO ([1]; Table 8) | Emax [1, 4] | EC50 ([1]; Table 8, read-out: pEC50, Akt 1/2/3 (Thr308) phosphorylation, hFPR2-Flpln-CHO (converted)) | Log(τ/KA), Akt 1/2/3 (Thr308) phosphorylation, hFPR2-Flpln-CHO ([1]; Table 8) | Emax ([2]; Table 1, percentage of [Ca^2+]i mobilization elicited by ATP, read-out: Emax (%), [Ca^2+]i mobilization, hFPR1-Flpln-CHO) | Emax ([2]; Table 8, percent of response elicited by ATP, read-out: Emax, [Ca^2+]i mobilization, hFPR1-Flpln-CHO) | EC50 ([2]; Table 1, read-out: pEC50, [Ca^2+]i mobilization, hFPR1-Flpln-CHO (converted)) | ΔLog(τ/KA), [Ca^2+]i mobilization, hFPR1-Flpln-CHO ([2]; Table 8, normalized transduction coefficient, reference agonist Cmpd43) | EC50 ([2]; Table 8, read-out: pEC50, [Ca^2+]i mobilization, hFPR1-Flpln-CHO (converted)) | Log(τ/KA), [Ca^2+]i mobilization, hFPR1-Flpln-CHO ([2]; Table 8, transduction coefficient) | EC50 [2, 5] | Calcium Rmax ([2]; Table 10, receptor not given, ND = Not detectable) | EC50 ([2]; Table 10, receptor not given, ND = Not detectable, read-out: Calcium pEC50 (converted))
CC(C)C1C(NC(=O)Nc2ccc(Cl)cc2)C(=O)N(c2ccccc2)N1C (centres unmarked) [BIDI-002] | 27 ± 2% | 138 nM | 0.0 | 27 ± 2% | 126 nM | 7.0 ± 0.2 | 43 ± 6% | 43 ± 6% | 11 nM | 0.0 | 10 nM | 8.0 ± 0.2 | 11 nM | – | –
CSCC[C@H](NC=O)C(=O)N[C@@H](CC(C)C)C(=O)N[C@@H](Cc1ccccc1)C(=O)O [fMLP, N-formyl-Met-Leu-Phe] | 7 ± 2% | – | −2.1 ± 0.3 | 21 ± 2% | – | 4.8 ± 0.1 | – | – | – | – | – | – | – | – | –
Cc1cc(Cc2cccnc2)c(=O)n(CC(=O)Nc2ccc(Cl)cc2)n1 [MIPS-0010396] | – | – | – | – | – | – | – | – | – | – | – | – | 33100 nM | 22 ± 2 | 33100 nM
